Assay [1] relates to MRC5-SV2 cell line of human, embryonic lung fibroblasts. The assay can be described thus: Cytotoxicity screening of the peptide library. Conditions: 72 h, 37°C, resazurin fluorescence. In kind it is cell-based. On the procedure:
To determine early signs of peptide toxicity, the library was tested against the MRC5-SV2 cell line of human, embryonic lung fibroblasts (Sigma-Aldrich). Peptides were serially diluted in 96-well plates as described earlier at concentrations ranging from 64 μM to 0.25 μM for the first screening, and from 32 μM to 0.016 μM for the independent repeat. Tamoxifen (Sigma-Aldrich) was included as a reference compound. After preparation of the test plates, cell suspension (190 μL) of 1.5 × 10^5 cells/mL in complete minimum essential medium (Gibco) was added to the peptides. Plates were incubated for 72 h at 37°C in a 5% CO2 incubator (Binder). Afterwards, 50 μL of a 0.01% (wt/vol) resazurin (Sigma-Aldrich) solution was added to the wells to detect cell viability.
On the technique in general: Resazurin is reduced to fluorescent resorufin, in cell work by metabolically active cells.

Assay [2] deals with S. aureus ATCC 6538. In kind it is cell-based, Staphylococcus aureus. The note with it: for IC50: MHB, 37°C, resazurin, 50% growth inhibition; for IC50 / MIC S. aureus ATCC 6538: 16 h; for MIC S. aureus ATCC 6538: determined visually; for MBC S. aureus ATCC 6538: wells without visual growth plated on MHA, ≥3 log reduction vs growth control. On the procedure: (§1) To detect antimicrobial activity of the BSF AMPs, the peptide library underwent screening against a panel of microorganisms, consisting of S. aureus ATCC 6538, E. coli ATCC 8739, P. aeruginosa ATCC 9027, C. albicans B59630, and A. fumigatus B42928. Serial dilutions of the peptides were prepared from the DMSO stock solutions in sterile demineralized water in 96-well plates using an automated liquid-handling workstation (Beckman Coulter Biomek 3000) in end volumes of 10 μL. The final in-plate concentration of DMSO was <1%. Peptide concentrations ranged from 64 μM to 0.25 μM for the first evaluation, and from 32 μM to 0.016 μM for the independent repeat. As references, doxycycline (Sigma-Aldrich; S. aureus, E. coli, P. aeruginosa), flucytosine (Sigma-Aldrich; C. albicans), and econazole (Sigma-Aldrich; A. fumigatus) were used. Suspensions of a starting inoculum of 5 × 10^3 CFU/mL (E. coli, S. aureus, C. albicans, A. fumigatus) and 5 × 10^4 CFU/mL (P. aeruginosa) were prepared in MHB (bacterial species) or RPMI medium (fungal species) and 190 μL was added to the 96-well plates. Plates were incubated for 16 h (E. coli, S. aureus, P. aeruginosa), 24 h (C. albicans), or 48 h (A. fumigatus) at 37°C. After incubation, read-out of the antimicrobial activity was performed using a resazurin assay. Then, 20 μL of a 0.01% (wt/vol) resazurin (Sigma-Aldrich) solution was added to each well and plates were incubated for 15 min (S. aureus), 30 min (E. coli), 45 min (P. aeruginosa), 4 h (C. albicans), or 17 h (A. fumigatus) to allow resazurin reduction to take place. Fluorescence was read using a microplate reader (Telix) at λexcitation = 550 nm and λemission = 590. […] MIC values were determined visually. Medium in the wells with no visual growth was plated on MHA to detect the MBC, defined as ≥3 log reduction compared with the growth control.

For assay [3], the system named is E. coli ATCC 8739. In kind it is cell-based, Escherichia coli. Conditions: 16 h; for IC50: MHB, 37°C, resazurin; for MIC E. coli ATCC 8739: determined visually. The method, then: as §1
For assay [4], the system named is P. aeruginosa ATCC 9027. The assay is classed as cell-based, Pseudomonas aeruginosa. Conditions: 16 h; for IC50: MHB, 37°C, resazurin; for MIC P. aeruginosa ATCC 9027: determined visually. The method, then: as §1
Assay [5] deals with C. albicans B59630. The assay is classed as cell-based, Candida albicans. Conditions: RPMI, 24 h, 37°C, resazurin. The method, then:
as §1

In assay [6] the test system is A. fumigatus B42928. The assay is classed as cell-based, Aspergillus fumigatus. Conditions: RPMI, 48 h, 37°C, resazurin. The method, then: as §1
[7] abbreviates: repeat 1, first screening 64-0.25 μM.
Where [8] appears, read: repeat 2, independent repeat 32-0.016 μM.

Where “and” joins values, the source holds several entries; their conditions need not be identical. Identical values can stand only once. Like-named read-outs stand apart in the source and are kept apart here. Ends that are not written are not given here. Where only a bound is given, the exact number is not on record here.

“AMCDLLSGLNMGRSVCAMRCILKGHRGGWCDDQGVCNCRV [Hill-Def5, Defensin without disulfide bridges]”: the IC50 (usually the concentration that gives 50% inhibition) in assay [1] (setting [7]) was > 64 µM; in assay [1] (setting [8]), > 32 µM; in assay [2] (repeat 1, 64-0.25 μM) it was > 64 µM; in assay [2] (repeat 2, 32-0.016 μM) it was > 32 µM; in assay [3] (repeat 1, 64-0.25 μM), > 64 µM; in assay [3] (repeat 2, 32-0.016 μM) it was > 32 µM. Also, the IC50 was > 64 µM in assay [4] (repeat 1, 64-0.25 μM); > 32 µM in assay [4] (repeat 2, 32-0.016 μM); > 64 µM in assay [5] (repeat 1, 64-0.25 μM); > 32 µM in assay [5] (repeat 2, 32-0.016 μM); > 64 µM in assay [6] (repeat 1, 64-0.25 μM); > 32 µM in assay [6] (repeat 2, 32-0.016 μM). In addition, the “MIC S. aureus ATCC 6538” value in assay [2] (repeat 1, 64-0.25 μM) was > 64.00 µM; in assay [2] (repeat 2, 32-0.016 μM), > 32.00 µM. The “MIC E. coli ATCC 8739” value in assay [3] (repeat 1, 64-0.25 μM) was > 64.00 µM; in assay [3] (repeat 2, 32-0.016 μM), > 32.00 µM. In addition, the “MIC P. aeruginosa ATCC 9027” value in assay [4] (repeat 1, 64-0.25 μM) is > 64.00 µM; in assay [4] (repeat 2, 32-0.016 μM) it was > 32.00 µM.
In the case of “TTCDLISGTKIENIACAAHCIAMGHKGGYCNSNLICICR [Hill-Def7, Defensin without disulfide bridges]”, the IC50 in assay [1] (setting [7]) was > 64 µM; in assay [1] (setting [8]), > 32 µM; in assay [2] (repeat 1, 64-0.25 μM), > 64 µM; in assay [2] (repeat 2, 32-0.016 μM), > 32 µM; in assay [3] (repeat 1, 64-0.25 μM) it was > 64 µM; in assay [3] (repeat 2, 32-0.016 μM), > 32 µM. The IC50 in assay [4] (repeat 1, 64-0.25 μM) was > 64 µM; in assay [4] (repeat 2, 32-0.016 μM) it was > 32 µM; in assay [5] (repeat 1, 64-0.25 μM), > 64 µM; in assay [5] (repeat 2, 32-0.016 μM), > 32 µM; in assay [6] (repeat 1, 64-0.25 μM), > 64 µM; in assay [6] (repeat 2, 32-0.016 μM), > 32 µM. Besides, the “MIC S. aureus ATCC 6538” value is > 64.00 µM in assay [2] (repeat 1, 64-0.25 μM) and > 32.00 µM in assay [2] (repeat 2, 32-0.016 μM). Further, the “MIC E. coli ATCC 8739” value in assay [3] (repeat 1, 64-0.25 μM) is > 64.00 µM; in assay [3] (repeat 2, 32-0.016 μM), > 32.00 µM. The “MIC P. aeruginosa ATCC 9027” value in assay [4] (repeat 1, 64-0.25 μM) was > 64.00 µM; in assay [4] (repeat 2, 32-0.016 μM), > 32.00 µM.
With “ATCDLLSPFKVGHAACAAHCIARGKRGGWCDKRAVCNCRK (also: bicyclic or more (positions not given here)) [Hill-Def2b, Defensin with disulfide bridges, counterpart of Hill-Def2a]”, the IC50 was > 64 µM in assay [1] (setting [7]); > 32 µM in assay [1] (setting [8]); 8.5 µM in assay [2] (repeat 1, 64-0.25 μM); 13.5 µM in assay [2] (repeat 2, 32-0.016 μM); > 64 µM in assay [3] (repeat 1, 64-0.25 μM); > 32 µM in assay [3] (repeat 2, 32-0.016 μM). Besides, the IC50 in assay [4] (repeat 1, 64-0.25 μM) is > 64 µM; in assay [4] (repeat 2, 32-0.016 μM) it was > 32 µM; in assay [5] (repeat 1, 64-0.25 μM), > 64 µM; in assay [5] (repeat 2, 32-0.016 μM), > 32 µM; in assay [6] (repeat 1, 64-0.25 μM) it was > 64 µM; in assay [6] (repeat 2, 32-0.016 μM), > 32 µM. In addition, the “concentration for 90% growth inhibition of S. aureus / activity against S. aureus” value in assay [2] (library screening, both repeats) is 32 µM and 64 µM. Moreover, the “MIC S. aureus ATCC 6538” value is 64.00 µM in assay [2] (repeat 1, 64-0.25 μM); > 32.00 µM and 32.00 µM in assay [2] (repeat 2, 32-0.016 μM). Further, the “MBC S. aureus ATCC 6538” value in assay [2] (repeat 1) and in assay [2] (repeat 2) was “static” in each case. The “MIC E. coli ATCC 8739” value was > 32.00 µM in assay [3] (repeat 1, 64-0.25 μM); > 64.00 µM and 64.00 µM in assay [3] (repeat 2, 32-0.016 μM). The “MIC P. aeruginosa ATCC 9027” value in assay [4] (repeat 1, 64-0.25 μM) was > 32.00 µM and >64.00 µM; in assay [4] (repeat 2, 32-0.016 μM), > 64.00 µM and >32.00 µM.

For the origin of these results see PMC8729770, “In Vitro Evaluation of Antimicrobial Peptides from the Black Soldier Fly (Hermetia Illucens) against a Selection of Human Pathogens” (Microbiology Spectrum, 2022).
